Source: patent US20210154162A1, “DRUG AND PHARMACEUTICAL COMPOSITION CONTAINING TRANSPORT PROTEIN INHIBITOR, AND USE” (Institute of Basic Medical Sciences Chinese Academy of …, priority 2018, published 2021)
Values belong to the molecule of their own block, whether it stands above or below them.

Legend:
PD-1 [1] = assay: PD-1 expression in patients' peripheral blood T cells treated with supernatants of IFN-γ-treated CD45- tumor cells; type: cell-based, human; conditions: CD45- tumor cells treated with IFN-γ with or without 1-MT 24 h; supernatants on T cells 24 h
Protocol: Moreover, very high PD-1 expression was found in tumor-infiltrating CD8^+ T cells of breast and colon cancer patients (FIG. 7A). […] It was worth noting that Kyn levels were strongly correlated with PD-1 expression in breast and colon cancer patients, but not in healthy people (FIG. 7C). To clarify the cellular source of the Kyn production, CD45^+ immune cells and CD45^− tumor cells isolated from breast tumor tissues (n=10) and colon tumor tissues (n=14) of patients were analyzed. IDO1 expression as well as Kyn levels were dominantly high in CD45^− cells rather than CD45^+ cells. Then, the inventors treated CD45^− tumor cells with IFN-γ in the presence or absence of 1-MT for 24 hours in vitro. The supernatants were used to treat peripheral blood T cells of patients for 24 hours.

OVA-B16 TRCs = assay: OVA-B16 TRC / activated OT-1 T cell co-culture with IDO1 or SLC1A5 blockade (flow cytometry); type: cell-based, mouse; conditions: for expression of IFN-γ, TNF-α and CD107a: T cells in co-culture with OVA-B16 TRCs; for PD-1 expression on T cells: co-culture with OVA-B16 TRCs, 24 h; for TRC apoptosis: co-culture with activated OT-1 T cells, 4 h
Protocol: (7) Scramble- or shIDO1-(Sh1 or Sh2)-OVA B16 TRCs were co-cultured with anti-CD3/CD28 bead-activated OT-1 T cells. After 4 h or 24 h, TRC apoptosis (as shown in FIG. 2G) or PD-1 expression on T cells (as shown in FIG. 2H) was analyzed by flow cytometry. The analysis results were as shown in FIG. 2G and FIG. 2H, respectively.
(9) Scramble- and shSLC1A5-(Sh1 or Sh2)-OVA B16 TRCs were co-cultured with anti-CD3/CD28 bead-activated OT-1 T cells. After 4 h or 24 h, TRC apoptosis (as shown in FIG. 2J) or PD-1 expression (as shown in FIG. 2K) was analyzed by flow cytometry. The analysis results were as shown in FIG. 2J and FIG. 2K, respectively.

PD-1 [2] = assay: OVA-B16 melanoma-bearing mice with adoptively transferred CFSE-labeled OT-1 T cells, PD-1 expression; type: in vivo, mouse; conditions: DMF 5 μg/mouse, 6 days; CFSE+ T cells from tumor mass, spleen or lymph nodes
Protocol: (6) C57BL/6 mice with 5×5 mm OVA-B16 melanoma were adoptively transferred with CFSE-labeled OT-1 CD8^+ T cells (4×10^6 cells/mouse, once every three days) on three occasions. At the same time, some mice were i.p. injected with Kyn (50 μg/mouse, once every two days) for three times. On Day 7 after transferring, CFSE^+CD8^+ T cells were isolated from tumor for flow cytometric analysis of PD-1 expression.
(8) The experimental steps were the same as those of step (7), except that C57BL/6 mice were treated with Kyn, DMF (5 μg/mouse, o.t., twice every day) or Kyn+DMF for 6 days. CFSE^+CD8^+ T cells from tumor were isolated for flow cytometric analysis of PD-1 expression.

B16 melanoma = assay: B16 melanoma-bearing C57BL/6 mice treated with Kyn, DMF or Kyn+DMF; type: in vivo, mouse
Protocol: (9) C57BL/6 mice with 5×5 mm B16 melanoma were treated with PBS, Kyn (50 μg/mouse, i.p., once every two days), DMF (5 μg/mouse, o.t., once every day) or Kyn+DMF for 6 days. PD-1 expression in CD8^+ T cells isolated from tumors was determined by flow cytometry (n=5). (14) The experimental steps were the same as those of step (9), except that the tumors were weighed. The weighing results were as shown in FIG. 6P. *p<0.05, **p<0.01; #p<0.05, ##p<0.01, as compared with CTL group. The data represented mean±SEM.

OVA-B16 melanoma = OVA-B16 melanoma mice, adoptive OT-1 CD8+ T cell transfer plus DMF or anti-PD-1 antibody; type: in vivo; conditions: anti-PD-1 antibody 250 μg/day or DMF 5 μg/mouse twice every day
Protocol: (13) C57BL/6 mice with 5×5 mm OVA-B16 melanoma were adoptively transferred with or without OT-1 CD8^+ T cells (4×10^6 cells/mouse) once per three days for three times. At the same time, these mice were treated with PBS, DMF (5 μg/mouse, o.t., twice every day) or anti-PD-1 neutralizing antibody (250 μg/day, once every two days, twice) for 20 days. The tumor growth was measured (left) and the long-term survival rate was analyzed (right).

PAT4 and SLC7A8 [3] = assay: PAT4 and SLC7A8 expression in activated CD8+ T cells (real-time PCR, immunostaining); type: cell-based, mouse
Protocol: (2) Activated CD8^+ T cells were treated with PBS or Kyn (200 μM) for 24 h. The expression of PAT4 and SLC7A8 was determined by real-time PCR (left) and immunostaining (right). Bar, […].
(6) The mRNA expression of PAT4 and SLC7A8 was determined in activated CD8^+ T cells treated with PBS, Kyn, Kyn/CH-223191 (10 μM) or Kyn/DMF (20 μM) for 48 h.

PD-1 [4] = assay: PD-1 expression in human CD8+ T cells treated with Kyn and AhR inhibitors (flow cytometry); type: cell-based; conditions: 48 h
Protocol: (4) CD8^+ T cells isolated from PBMCs of patients with breast cancer or lung cancer were activated by anti-CD3/CD28 beads and treated with PBS, Kyn (200 μM) or Kyn/DMF (20 μM) for 48 h. The expression of PD-1 was determined by flow cytometry.
(5) CD8^+ T cells isolated from patients with breast cancer or lung cancer were treated with DMF (20 μM) for 48 h. PD-1 expression was determined by flow cytometry (n=6).

PAT4 and SLC7A8 [5] = assay: PAT4 and SLC7A8 expression in CD8+ T cells from breast cancer patients (real-time PCR); type: cell-based, human; conditions: Kyn/DMF (20 μM) or Kyn/CH (50 μM), 48 h
Protocol: (8) CD8^+ T cells from breast cancer patients were treated with PBS, Kyn ([…] (20 μM) or Kyn/CH (50 μM) for 48 h. The expression of PAT4 and SLC7A8 was determined by real-time PCR. The determination results were as shown in FIG. 7I.

AhR = assay: PD-1 expression in activated CD8+ T cells treated with Kyn plus AhR inhibitor (flow cytometry); type: cell-based, mouse; conditions: Kyn plus inhibitor (DMF 10 or 20 μM), 72 h
Protocol: (4) CD8^+ T cells activated by anti-CD3/CD28 beads were treated with PBS, Kyn or Kyn/DMF (10 or 20 μM) for 72 h. The expression of PD-1 was determined by flow cytometry.

PD-1 [6] = assay: ID8 ovarian cancer and H22 hepatocarcinoma ascites peritoneal tumor models; type: in vivo, mouse; conditions: DMF
Protocol: (10) C57BL/6 mice were intraperitoneally injected with 1×10^6 ID8 ovarian cancer cells. After 10 days, mice were intraperitoneally administered with PBS, Kyn, DMF or Kyn+DMF for 6 days. CD8^+ T cells from ascites were isolated and PD-1 expression was determined by flow cytometry (n=5).

[7] = biological target: T1, tryptophan transporter SLC1A5 (Mus musculus, UniProt P51912); assay: Effect of GPNA on the uptake of tryptophan by tumor cells (ELISA of lysates); type: cell-based; conditions: OVA-B16 cells, 50 ng/mL IFN-γ + 10 μM GPNA, 24 h
T1 construct: endogenous in cells; host or cells: mouse OVA-B16 melanoma cells
T1 sequence (P51912 1-553): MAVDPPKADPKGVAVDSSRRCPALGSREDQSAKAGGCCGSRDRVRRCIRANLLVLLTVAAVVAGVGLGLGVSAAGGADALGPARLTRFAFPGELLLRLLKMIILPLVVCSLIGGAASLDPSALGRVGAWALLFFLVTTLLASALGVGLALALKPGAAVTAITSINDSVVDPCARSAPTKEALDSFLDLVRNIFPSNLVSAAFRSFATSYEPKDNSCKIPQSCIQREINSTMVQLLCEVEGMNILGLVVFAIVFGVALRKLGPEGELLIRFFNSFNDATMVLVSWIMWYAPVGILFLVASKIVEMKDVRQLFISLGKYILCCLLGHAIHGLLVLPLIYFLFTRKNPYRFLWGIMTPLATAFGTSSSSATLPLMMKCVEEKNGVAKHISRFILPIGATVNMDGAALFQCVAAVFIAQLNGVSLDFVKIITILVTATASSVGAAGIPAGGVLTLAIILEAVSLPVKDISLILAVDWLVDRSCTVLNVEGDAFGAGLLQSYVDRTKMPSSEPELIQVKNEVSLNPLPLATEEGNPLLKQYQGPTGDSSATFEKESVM
Protocol: Mouse OVA-B16 cells were cultured in RPMI-1640 culture medium in vitro and were group and treated as follows.
(§1) Control group 1 (PBS): culture medium+PBS;
Control group 2 (GPNA): culture medium+10 μM GPNA;
Experimental group 3 (IFN-γ): culture medium+50 ng/mL IFN-γ;
Experimental group 4 (IFN-γ+GPNA): culture medium+50 ng/mL IFN-γ+10 μM GPNA;
The cells in each group were collected after 24 h and ultrasonically broken, the concentrations of tryptophan in the lysates were determined by ELISA, and BCA protein assay was carried out at the same time.

SLC1A5 [8] = biological target: T2, SLC1A5 (Mus musculus, UniProt P51912); assay: Tryptophan levels in B16 TRC lysates (ELISA); type: cell-based
T2 construct: endogenous in cells; host or cells: B16 tumor-repopulating cells (TRCs)
T2 sequence (P51912 1-553): T1 sequence (P51912 1-553)
Protocol: (8) Tryptophan levels in cell lysates were determined by ELISA in scramble- and shSLC1A5-(Sh1 or Sh2)-B16 TRCs in the presence or absence of IFN-γ for 24 h.

PD-1 [9] = assay: Effect of GPNA on PD-1 expression in specific OT-1 CD8+ T cells co-cultured with 3D-cultured OVA-B16 cells; type: cell-based, mouse; conditions: 3D-cultured OVA-B16 cells treated 12 h with 10 μM GPNA, co-culture 1:10, 4 h
Protocol: 3D-cultured OVA-B16 cells were grouped and treated with drug as follows.
as §1
Experimental group 2 (GPNA): culture medium+10 μM GPNA;
After 12 h of treatment, the cells were co-cultured with OT-1 CD8^+ T cells that had been activated for 48 h at a ratio of 1:10, and PD-1 expression in CD8^+ T cells was determined by flow cytometry after 4 h.

B16 TRCs = assay: Kyn release by IFN-γ-treated tumor cells (ELISA of supernatants); type: cell-based, mouse; conditions: IFN-γ 10 ng/ml, 24 h
Protocol: (3) OVA-B16 cells grown in culture flask or OVA-B16 TRCs were treated with IFN-γ (10 ng/ml) for 24 h. Kyn levels in the supernatants were determined by ELISA.

SLC1A5 [10] = assay: SLC1A5 expression in TRCs upon IFN-γ; type: cell-based; conditions: IFN-γ treatment, mRNA and protein levels
IDO1 = IDO1 expression in TRCs upon IFN-γ; type: cell-based
PD-L1 = PD-L1 expression on TRCs upon IFN-γ; type: cell-based, mouse

Molecule: Cn1cc(C[C@@H](N)C(=O)O)c2ccccc21 [1-MT]
PD-1 upregulation in CD8+ T cells by supernatants (PD-1 [1]): blocked
expression of IFN-γ, TNF-α and CD107a (OVA-B16 TRCs): upregulation
PD-1 expression on T cells (OVA-B16 TRCs): downregulation
TRC apoptosis (OVA-B16 TRCs): more TRC apoptosis

Molecule: COc1ccc(-c2cc(=O)c3ccccc3o2)cc1OC [DMF, 3′,4′-dimethoxyflavone]
Kyn-triggered upregulation of PD-1 expression in tumor-specific CD8+ T cells (PD-1 [2]): abrogated
accelerated tumor growth seen with Kyn-treatment (B16 melanoma; Kyn+DMF): reversed
Kyn-induced PD-1 upregulation in CD8+ T cells isolated from tumor, spleen or lymph nodes (B16 melanoma; Kyn+DMF (5 μg/mouse), 6 days): blocked
therapeutic effect of adoptively transferred OVA-specific CD8+ T cells (tumor growth, survival) (OVA-B16 melanoma): equal treatment efficiency
Kyn-induced upregulation of SLC7A8 and PAT4 (PAT4 and SLC7A8 [3]; activated CD8+ T cells, Kyn/CH-223191 (10 μM) or Kyn/DMF (20 μM), 48 h): effectively inhibiting
Kyn-induced PD-1 upregulation (PD-1 [4]; human CD8+ T cells, Kyn plus inhibitor (DMF 20 μM)): inhibited
PD-1 expression (PD-1 [4]; patients' CD8+ T cells, DMF alone 20 μM): directly downregulate PD-1 expression
Kyn-induced upregulation of SLC7A8 and PAT4 (PAT4 and SLC7A8 [5]): blocked
Kyn-dependent upsurge of PD-1 (AhR): thwarted
expression pattern of PD-1, IFN-γ and TNF-α (PD-1 [6]): reversed

uptake of tryptophan by tumor cells [7]: significantly reduced
intracellular levels of tryptophan in TRCs (SLC1A5 [8]): decreased
Molecule: N[C@@H](CCC(=O)Nc1ccc([N+](=O)[O-])cc1)C(=O)O [GPNA, L-γ-Glutamyl-p-nitroanilide]
PD-1 expression in specific OT-1 CD8+ T cells (PD-1 [9]): significantly inhibit
expression of IFN-γ, TNF-α and CD107a (OVA-B16 TRCs): upregulation
PD-1 expression on T cells (OVA-B16 TRCs): downregulation
TRC apoptosis (OVA-B16 TRCs): more TRC apoptosis

Molecule: IFN-γ: recombinant IFN-γ purchased from R & D Systems
Kyn levels in the supernatants (B16 TRCs): release high levels of Kyn
expression of PAT4 and SLC7A8 (PAT4 and SLC7A8 [3]; CD8+ T cells, IFN-γ treatment): did not affect
expression of SLC1A5 (SLC1A5 [10]): further augmented
IDO1 expression (IDO1): further upregulated
expression of PD-L1 (PD-L1): upregulated
